From patent US6498125B2, “Pyridine ketones useful as herbicides” (Syngenta Participations AG, priority 1998, dated 2002)
Each block holds one compound with its values, some of them ahead of it.

Key:
Abutilon [1] = assay: Example B4: post-emergence action, 250 g/ha; format: in vivo; details: 250 g of AS/ha, sprayed in the 2-3-leaf stage, 0.2% X77, 3 weeks, nine-level scale 1=complete damage, 9=no effect
Procedure: (§1) Monocotyledonous and dicotyledonous test plants are sown in pots in standard soil. In the 2-3- leaf stage of the test plants, the test substances are sprayed on (500 l of spray liquor/ha) as an aqueous suspension, prepared from a wettable powder WP10 according to the desired dosage (250 g of a.i./ha). 0.2% of X77 is added as wetting agent to the spray liquor. The test plants are then grown under optimum conditions in a greenhouse.
(§2) After a test period of 3 weeks, the test is evaluated with a nine4evel scale of ratings (1=complete damage, 9=no effect). Ratings of 1 to 4 (in particular 1 to 3) mean good to very good herbicidal action, 7-9 mean good tolerance.

Amaranthus [2] = assay: Example B4: post-emergence action, 250 g/ha; format: in vivo; details: 250 g of AS/ha, sprayed in the 2-3-leaf stage, 0.2% X77, 3 weeks, nine-level scale 1=complete damage, 9=no effect
Procedure: as §1, §2

Chenopodium [3] = assay: Example B4: post-emergence action, 250 g/ha; format: in vivo; details: 250 g of AS/ha, sprayed in the 2-3-leaf stage, 0.2% X77, 3 weeks, nine-level scale 1=complete damage, 9=no effect
Procedure: as §1, §2

Kochia [4] = assay: Example B4: post-emergence action, 250 g/ha; format: in vivo; details: 250 g of AS/ha, sprayed in the 2-3-leaf stage, 0.2% X77, 3 weeks, nine-level scale 1=complete damage, 9=no effect
Procedure: as §1, §2

Sida [5] = assay: Example B4: post-emergence action, 250 g/ha; format: in vivo; details: 250 g of AS/ha, sprayed in the 2-3-leaf stage, 0.2% X77, 3 weeks, nine-level scale 1=complete damage, 9=no effect
Procedure: as §1, §2

Stellaria [6] = assay: Example B4: post-emergence action, 250 g/ha; format: in vivo; details: 250 g of AS/ha, sprayed in the 2-3-leaf stage, 0.2% X77, 3 weeks, nine-level scale 1=complete damage, 9=no effect
Procedure: as §1, §2

[7] = test system: Monocotyledonous and dicotyledonous test plants; assay: Example B2: post-emergence herbicidal action, 2 kg of AS/ha; format: in vivo; parameters: key: 1 = complete damage, 9 = no effect; details: 4- to 6-leaf stage, about 18 days, scale 1-9
Procedure: Monocotyledonous and dicotyledonous test plants are grown in plastic pots with standard soil in a greenhouse and, in the 4- to 6-leaf stage, are sprayed with an aqueous suspension of the test substances of the formula 1, prepared from a 25% wettable powder (Example F3, b) according to WO 97134485) or with an emulsion of the test substances of the formula I, prepared from a 25% emulsion concentrate (Example F1, c) according to WO 97/34485), corresponding to a dosage of 2 kg of AS/ha (500 l of water/ha). The test plants are then grown further under optimum conditions in a greenhouse. After a test period of about 18 days, the test is evaluated with a nine-level scale of rating (1=complete damage, 9=no effect). Ratings of 1 to 4 (in particular 1 to 3) mean good to very good herbicidal action. In this test, the compounds of the formula I show strong herbicidal action.

Abutilon [8] = assay: Example B3: pre-emergence action, 250 g/ha; format: in vivo; details: 250 g of AS/ha, sprayed immediately after sowing, 3 weeks, nine-level scale 1=complete damage, 9=no effect
Procedure: (§3) Monocotyledonous and dicotyledonous test plants are sown in pots in standard soil. Immediately after sowing, the test substances are sprayed on (500 l of spray liquorlha) as an aqueous suspension, prepared from a wettable powder WP10 corresponding to the desired dosage (250 g of a.i./ha).
as §2, with “The test plants are then grown under optimum conditions in a greenhouse. After” for “After”, “nine -evel” for “nine4evel”

Amaranthus [9] = assay: Example B3: pre-emergence action, 250 g/ha; format: in vivo; details: 250 g of AS/ha, sprayed immediately after sowing, 3 weeks, nine-level scale 1=complete damage, 9=no effect
Procedure: as §3
as §2, with “The test plants are then grown under optimum conditions in a greenhouse. After” for “After”, “nine -evel” for “nine4evel”

Chenopodium [10] = assay: Example B3: pre-emergence action, 250 g/ha; format: in vivo; details: 250 g of AS/ha, sprayed immediately after sowing, 3 weeks, nine-level scale 1=complete damage, 9=no effect
Procedure: as §3
as §2, with “The test plants are then grown under optimum conditions in a greenhouse. After” for “After”, “nine -evel” for “nine4evel”

Kochia [11] = assay: Example B3: pre-emergence action, 250 g/ha; format: in vivo; details: 250 g of AS/ha, sprayed immediately after sowing, 3 weeks, nine-level scale 1=complete damage, 9=no effect
Procedure: as §3
as §2, with “The test plants are then grown under optimum conditions in a greenhouse. After” for “After”, “nine -evel” for “nine4evel”

Sida [12] = assay: Example B3: pre-emergence action, 250 g/ha; format: in vivo; details: 250 g of AS/ha, sprayed immediately after sowing, 3 weeks, nine-level scale 1=complete damage, 9=no effect
Procedure: as §3
as §2, with “The test plants are then grown under optimum conditions in a greenhouse. After” for “After”, “nine -evel” for “nine4evel”

Stellaria [13] = assay: Example B3: pre-emergence action, 250 g/ha; format: in vivo; details: 250 g of AS/ha, sprayed immediately after sowing, 3 weeks, nine-level scale 1=complete damage, 9=no effect
Procedure: as §3
as §2, with “The test plants are then grown under optimum conditions in a greenhouse. After” for “After”, “nine -evel” for “nine4evel”

Compound: Cc1ccc(C(=O)C2=C(O)C3CCC(C3)C2=O)c(C(F)(F)F)n1 (stereo not shown) [Compound 1.361]
Post-emergence action: Abutilon (rating) (Abutilon [1]): 2
Post-emergence action: Amaranthus (rating) (Amaranthus [2]): 2
Post-emergence action: Chenopodium (rating) (Chenopodium [3]): 2
Post-emergence action: Kochia (rating) (Kochia [4]): 2
Post-emergence action: Sida (rating) (Sida [5]): 2
Post-emergence action: Stellaria (rating) (Stellaria [6]): 3

Compound: CSc1nccc(C(=O)C2=C(O)C3CCC(C3)C2=O)c1C#N (stereo not shown) [Compound 3.055]
melting point: 108 to 110 °C

Compound: Cc1nc(C(F)(F)F)ccc1C(=O)C1=C(O)CC(NC(=O)Nc2ccccc2)CC1=O (stereo not shown) [Compound 6.076]
melting point: 195 to 196 °C

Compound: C#CCOc1ccc(C(=O)C2=C(O)C3CCC(C3)C2=O)c(C(F)(F)F)n1 (stereo not shown) [Compound 1.351]
Post-emergence action: Abutilon (rating) (Abutilon [1]): 5
Post-emergence action: Amaranthus (rating) (Amaranthus [2]): 2
Post-emergence action: Chenopodium (rating) (Chenopodium [3]): 3
Post-emergence action: Kochia (rating) (Kochia [4]): 3
Post-emergence action: Sida (rating) (Sida [5]): 3
Post-emergence action: Stellaria (rating) (Stellaria [6]): 3

Compound: CCC(=O)NC1CC(=O)C(C(=O)c2ccc(C(F)(F)F)nc2C)=C(O)C1 (stereo not shown) [Compound 6.006]
post-emergence action rating, Avena ([7]; test plant Avena): 2
post-emergence action rating, Setaria ([7]; test plant Setaria): 5
post-emergence action rating, Sinapis ([7]; test plant Sinapis): 2
post-emergence action rating, Solanum ([7]; test plant Solanum): 2
post-emergence action rating, Stellaria ([7]; test plant Stellaria): 2
melting point: 176 to 177 °C

Compound: CSc1ccc(C(=O)C2=C(O)C3CCC(C3)C2=O)c(C(F)(F)F)n1 (stereo not shown) [Compound 1.335]
Pre-emergence action: Abutilon (rating) (Abutilon [8]): 1
Pre-emergence action: Amaranthus (rating) (Amaranthus [9]): 2
Pre-emergence action: Chenopodium (rating) (Chenopodium [10]): 1
Pre-emergence action: Kochia (rating) (Kochia [11]): 5
Pre-emergence action: Sida (rating) (Sida [12]): 2
Pre-emergence action: Stellaria (rating) (Stellaria [13]): 7
Post-emergence action: Abutilon (rating) (Abutilon [1]): 3
Post-emergence action: Amaranthus (rating) (Amaranthus [2]): 2
Post-emergence action: Chenopodium (rating) (Chenopodium [3]): 2
Post-emergence action: Kochia (rating) (Kochia [4]): 2
Post-emergence action: Sida (rating) (Sida [5]): 2
Post-emergence action: Stellaria (rating) (Stellaria [6]): 3

Compound: Cc1nc(C(F)(F)F)ccc1C(=O)C1=C(O)C(C)(C)C=C(S(C)(=O)=O)C1=O [Compound 5.084]
melting point: 215 to 216 °C

Next, values leading:

melting point: 112 to 113 °C
Compound: Cc1nc(C(F)(F)F)ccc1-c1onc([S+](C)[O-])c1C(=O)C1CC1 (stereo not shown) [Compound 9.009, cyclopropyl-[3-methanesulfinyl-5-(2-methyl-6-trifluoromethylpyridin-3yl)isoxazol4-yl]methanone]

melting point: 262 to 263 °C
Compound: Cc1nc(C(F)(F)F)ccc1C(=O)C1=C(N)C2CCC(C2)C1=O (stereo not shown) [Compound 1.399, 4-amino-3-(2-methyl-6-trifluoromethylpyridine-3-carbonyl)bicyclo[3.2.1]oct-3en-2-one]

melting point: 161 to 162 °C
Compound: Cc1nc(C(F)(F)F)ccc1C(=O)C1=C(O)C(C)(C)C=C([S+](C)[O-])C1=O (stereo not shown) [Compound 5.083]

melting point: 96 to 97 °C
Compound: Cc1nc(C(F)(F)F)ccc1C(=O)c1c([S+](C)[O-])noc1C1CC1 (stereo not shown) [Compound 8.009, (5-cyclopropyl-3-methylsulfinylisoxazol-4-yl)-(2-methyl-6-trifluoromethylpyridin-3-yl)methanone]
